# From PubChem BioAssay (NCI)
#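 In this assay, cells in 96-well plates receive the compound at five concentrations for 48 hours. Endpoints are linearly interpolated between the surrounding concentrations. GI50 is the concentration that inhibits growth by half. At the TGI there is no net growth.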
# Columns and labels:
# Test in all cases: NCI anticancer screen, dose series, 48 h
# OVCAR-5 ovarian = test system: OVCAR-5 ovarian
# SK-OV-3 ovarian = test system: SK-OV-3 ovarian
# CCRF-CEM leukemia = test system: CCRF-CEM leukemia
# KM12 colon = test system: KM12 colon
# OVCAR-8 ovarian = test system: OVCAR-8 ovarian
# SR leukemia = test system: SR leukemia
# NCI-H460 lung = test system: NCI-H460 lung
# A549 NSCLC = test system: A549 NSCLC
# SNB-75 CNS = test system: SNB-75 CNS
# NCI-H522 lung = test system: NCI-H522 lung
SMILES,GI50 (OVCAR-5 ovarian) [µM],TGI (OVCAR-5 ovarian) [µM],GI50 (SK-OV-3 ovarian) [µM],TGI (SK-OV-3 ovarian) [µM],GI50 (CCRF-CEM leukemia) [µM],TGI (CCRF-CEM leukemia) [µM],GI50 (KM12 colon) [µM],TGI (KM12 colon) [µM],GI50 (OVCAR-8 ovarian) [µM],TGI (OVCAR-8 ovarian) [µM],GI50 (SR leukemia) [µM],TGI (SR leukemia) [µM],GI50 (NCI-H460 lung) [µM],TGI (NCI-H460 lung) [µM],GI50 (A549 NSCLC) [µM],TGI (A549 NSCLC) [µM],TGI (SNB-75 CNS) [µM],TGI (NCI-H522 lung) [µM],GI50 (SNB-75 CNS) [µM],GI50 (NCI-H522 lung) [µM]
CCCCCCCCCCCCC(=O)[O-].CCCCCCCCCCCCC(=O)[O-].CCCCCCCCCCCCC(=O)[O-].CCCCCCCCCCCCC(=O)[O-].[Mo+2].[Mo+2],23.6,67,15.1,59.9,2.29,10,10.9,29.1,11.9,31.3,5.83,29.8,17.1,60.1,14.9,44.2,,,,
O=C1C(=O)N(C2C3CC4CC(C3)CC2C4)C(=O)C(=O)C1c1nc2ccccc2o1 (stereo unspecified),,> 100,,> 100,,,,> 100,,> 100,,,,> 100,,> 100,> 100,,,
CC1CC2(CC[C@@H]1O)OCCO2 (stereo partly specified),,,,> 100,,> 100,,> 100,,> 100,,,,> 100,,> 100,,> 100,,
CCOC(=O)N1CCN(S(=O)(=O)c2oc(-c3ccc(Cl)cc3)nc2C#N)CC1,3.92,13.3,74.1,> 100,0.36,5.13,10.5,35.6,3.23,23.3,,,15,46,24.9,> 100,> 100,3.07,11.4,0.956
CCOc1ccc(NC(=O)CC2SC(N)=NC2=O)cc1 (stereo unspecified),,> 100,,,,> 100,,> 100,,> 100,,,,> 100,,> 100,> 100,,,
CCOC(=O)N1C2C=C(C)C(C3C(C)C(=O)N31)N(C(=O)c1ccccc1)O2 (stereo unspecified),,> 100,,> 100,,> 100,,> 100,,> 100,,> 100,,> 100,,> 100,> 100,,,
Cc1c2ccncc2c(C)c2c1[nH]c1ccc(OC(C)(C)C)cc12,,54.9,,18.8,,5.77,,,,9.75,,,,,,13.1,3.73,5.81,,
COC(=O)[C@]1(C)CCC[C@@]2(C)C1CCC1=C[C@@]3(C(C)C)CC[C@]12OO3 (stereo partly specified),,84.9,,> 100,,45.1,,66.5,,> 100,,40.7,,56.5,,> 100,,35.4,,
Nc1nc(OCc2ccccc2)nc2[nH]ncc12,11.9,28.2,18.6,49.8,,,16.2,34.5,> 100,> 100,5.59,30.5,24,88.8,27.7,> 100,,> 100,,25.5
CC(C)[C@@H](COC(C)(C)C)N=CN1CCc2c([nH]c3ccccc23)C1,,> 100,,> 100,,> 100,,> 100,,> 100,,,,> 100,,> 100,> 100,> 100,,
Clc1ccc2nc(Oc3ccccc3)cnc2c1,> 100,> 100,> 100,> 100,> 100,> 100,> 100,> 100,> 100,> 100,,,> 100,> 100,> 100,> 100,> 100,> 100,59,> 100
CCOC(=O)c1cnn(-c2ccnc3c(C(F)(F)F)cccc23)c1N,> 100,> 100,> 100,> 100,> 100,> 100,> 100,> 100,> 100,> 100,,,> 100,> 100,> 100,> 100,> 100,> 100,51.7,> 100
CC1=NN(C(=O)c2ccc(Cl)cc2)C(=O)/C1=C/c1cccc([N+](=O)[O-])c1,,> 100,,> 100,,> 100,,> 100,,> 100,,,,> 100,,> 100,,> 100,,
CCO[C@@H]1C2C=CC(C2)[C@H]1[N+](=O)[O-] (stereo partly specified),,> 100,,> 100,,> 100,,> 100,,> 100,,,,> 100,,> 100,> 100,> 100,,
O=[N+]([O-])c1nccn1CC1OC(n2ccnc2[N+](=O)[O-])C(O)C(O)C1O (stereo unspecified),,> 100,,,,> 100,,> 100,,> 100,,> 100,,> 100,,> 100,> 100,,,
Cc1cccc(C)c1NC(=O)CCCC(=O)C1CCC/C1=N\NC(=O)C(=O)NN (stereo unspecified),,> 100,,> 100,,> 100,,> 100,,> 100,,,,> 100,,> 100,> 100,,,
COc1ccc(-c2ccc(/C=N/n3c(COc4ccc(Cl)cc4)n[nH]c3=S)o2)c([N+](=O)[O-])c1,24.7,51.4,19.9,53.3,17.5,52,8.12,41.3,24.6,> 100,,,13,32.8,11.6,44.1,> 100,> 100,37.4,25.7
N#Cc1ccccc1NC(=O)c1ccccc1,,> 100,,,,,,> 100,,> 100,,> 100,,> 100,,> 100,> 100,,,
COc1ccc2cc3n(c2c1)CCc1cc(OC)c(OC)cc1-3,,,,> 100,,> 100,,> 100,,> 100,,,,> 100,,> 100,,> 100,,
O=C(O)CCC1CCc2cccc3occ1c23 (stereo unspecified),,> 100,,> 100,,> 100,,> 100,,> 100,,,,> 100,,> 100,> 100,> 100,,
O=c1[nH]cnc2c(C3OC(CO)C(O)C3O)scc12 (stereo unspecified),> 100,> 100,> 100,> 100,0.271,1.16,> 100,> 100,54.8,> 100,,,74,> 100,> 100,> 100,> 100,> 100,> 100,> 100
O=C1CCC2(c3ccccc3)Nc3cc(Cl)ccc3N12 (stereo unspecified),,> 100,,85.1,,75.2,,> 100,,> 100,,,,> 100,,> 100,64.9,> 100,,
CC[CH2][Pb]([CH2]CC)([CH2]CC)[NH]S(=O)(=O)c1ccc(C)cc1,0.0667,0.242,0.0788,0.276,0.0371,0.23,0.147,0.312,,,0.0522,0.279,0.137,0.277,0.0868,0.678,0.132,,0.0421,
N#CC1C(N)=NNC12Nc1ccccc1N2 (stereo unspecified),> 100,> 100,30,> 100,,,> 100,> 100,0.2,21.4,6.4,36.8,13.6,38.1,9.43,> 100,> 100,,24.8,
FC(F)(F)c1ccc2nc(Nc3ccc(Cl)c(Cl)c3)c(-c3ccccc3)nc2c1,,> 100,,,,> 100,,,,> 100,,> 100,,> 100,,> 100,,,,
CC(=O)C1=C([O-])C(C)OC1=O.CC(=O)C1=C([O-])C(C)OC1=O.[NH-]C1CCCC[C@H]1[NH-].[Pt+4] (stereo unspecified),,,> 100,> 100,,,> 100,> 100,> 100,> 100,,,30.5,> 100,88.1,> 100,,> 100,,27.5
CCOC(=O)/C(C#N)=C1\N[C@H](C(=O)OCC)CO1,,> 100,,,,> 100,,> 100,,> 100,,> 100,,> 100,,> 100,,> 100,,
CC(=O)OC1C2(CC3N4C(=O)C5(CO)SSC4(CC31O)C(=O)N5C)OC(C)C(C)(C)C2=O (stereo unspecified),0.0578,0.208,0.0745,0.454,,0.175,1.16,2.6,< 0.0495,0.222,,,< 0.0485,0.217,0.0592,0.231,,3.17,,1.33
CC1=CC(=O)C(C(C)=Nc2ccccc2Cl)C(=O)O1 (stereo unspecified),> 100,> 100,> 100,> 100,> 100,> 100,> 100,> 100,> 100,> 100,,,> 100,> 100,> 100,> 100,,> 100,,> 100
